Laboratory results: patent US20260224547A1, “COMPOSITIONS COMPRISING ANATABINE AND USES THEREOF” (Philip Morris Products S.A., priority 2021, published 2026)
Counter-ions that a name gives are not always drawn.

Key:
NRF2 = NRF2 luciferase assay (NRF2/ARE reporter cell line); format: cell-based, human; conditions: for effect on the NRF2 pathway: FIG. 4, tobacco alkaloids; for maximum log 2-fold change of NRF2 activation: at 12.5 μM for sulforaphane, 125 μM and 250 μM for DMF, 1000 μM for anatabine
Excerpt: A HEK-293 NRF2/ARE luciferase reporter cell line was acquired from Signosis (USA). According to Signosis, this NRF2 luciferase reporter stable cell line had been stably transfected with pTA-ARE-luciferase reporter vector, which contains 4 repeats of antioxidant response binding sites, a minimal promoter upstream of the firefly luciferase coding region, along with a hygromycin expression vector. Following selection, the hygromycin resistant clones were subsequently screened for TBHQ-induced luciferase activity. The clone with the highest fold induction was selected and expanded to produce this stable cell line.
4, 8 or 24 hours after stimulation of the NRF2 reporter cells luminescence was measured using a FLUOstar Omega plate reader.

NRF2 reporter cells = experiment: Cell viability measured with ATP assay alongside NRF2 translocation (FIG. 4 to 7); conditions: for cell viability, percentage of the vehicle control: human
Excerpt: FIGS. 5A to 5C: bar and line graphs showing NRF2 translocation presented as log 2 fold change compared to vehicle control (bars) and cell viability measured with ATP assay and presented as a percentage of the vehicle control (line) for anatabine (FIG. 5A), dimethyl fumarate (AlfaAesar) (FIG. 5B), and nornicotine (FIG. 5C).
FIGS. 6A to 6C: bar graphs showing NRF2 translocation presented as log 2 fold change compared to vehicle control (bars) and cell viability measured with ATP assay and presented as a percentage of the vehicle control (line) for anatabine (FIG. 6A), dimethyl fumarate (Sigma) (FIG. 6B), and sulforaphane (FIG. 6C).
FIGS. 7A and […]: bar graphs showing NRF2 translocation presented as log 2 fold change compared to vehicle control (bars) and cell viability measured with ATP assay and presented as a percentage of the vehicle control (line) for cotinine (FIG. 7A) and nicotine (FIG. 7B).

Compound	effect on the NRF2 pathway (NRF2)	maximum log 2-fold change of NRF2 activation (NRF2)	cell viability at higher concentrations (NRF2 reporter cells)	cell viability, percentage of the vehicle control (NRF2 reporter cells; 500 μM)	also measured
c1cncc([C@@H]2CCCN2)c1 [nornicotine]	do not substantially affect	–	–	–	–
c1cncc([C@@H]2CCCCN2)c1 [anabasine]	do not substantially affect	–	–	–	–
C[S+]([O-])CCCCN=C=S (centres unmarked) [sulforaphane]	–	approximately 5	significantly reduced	–	NRF2 activation, log 2-fold change (NRF2; 0.78 to 50 μM (P<0.01)): increase; cell viability, percentage of the vehicle control (NRF2 reporter cells; 25 μM): around 50%
COC(=O)/C=C/C(=O)OC [DMF, dimethyl fumarate]	–	6 to 7	significantly reduced	~0%	NRF2 activation, log 2-fold change (NRF2; 125 μM, DMF from AlfaAesar): 6.74; NRF2 activation, log 2-fold change (NRF2; 125 μM, DMF from Sigma): 6.90; NRF2 activation, log 2-fold change (NRF2; 250 μM, DMF from AlfaAesar): 6.81; NRF2 activation, log 2-fold change (NRF2; 250 μM, DMF from Sigma): 6.67
CN1C(=O)CC[C@H]1c1cccnc1 [cotinine]	do not substantially affect	–	–	below 85%	cell viability, percentage of the vehicle control (NRF2 reporter cells; 1000 μM): below 85%
CN1CCCC1c1cccnc1 (centres unmarked) [nicotine]	do not substantially affect	–	–	–	–
